Legend:
Jurkat = assay: Anticancer activity against human Jurkat cells assessed as cell growth inhibition; assay type: functional, cell-based
HL-60 = assay: Anticancer activity against human HL-60 cells assessed as cell growth inhibition; assay type: functional, cell-based
MOLT-4 = assay: Anticancer activity against human MOLT-4 cells assessed as cell growth inhibition; assay type: functional, cell-based
[1] = molecular target: T1, von Hippel-Lindau disease tumor suppressor/Receptor-interacting serine/threonine-protein kinase 2 (Homo sapiens, UniProt O43353+P40337); assay: Protac activity at VHL/RIPK2 in human THP-1 cells assessed as RIPK2 degradation measured after 16 hrs by Western blot analysis; assay type: cell-based
Target sequence in this assay (O43353 whole entry): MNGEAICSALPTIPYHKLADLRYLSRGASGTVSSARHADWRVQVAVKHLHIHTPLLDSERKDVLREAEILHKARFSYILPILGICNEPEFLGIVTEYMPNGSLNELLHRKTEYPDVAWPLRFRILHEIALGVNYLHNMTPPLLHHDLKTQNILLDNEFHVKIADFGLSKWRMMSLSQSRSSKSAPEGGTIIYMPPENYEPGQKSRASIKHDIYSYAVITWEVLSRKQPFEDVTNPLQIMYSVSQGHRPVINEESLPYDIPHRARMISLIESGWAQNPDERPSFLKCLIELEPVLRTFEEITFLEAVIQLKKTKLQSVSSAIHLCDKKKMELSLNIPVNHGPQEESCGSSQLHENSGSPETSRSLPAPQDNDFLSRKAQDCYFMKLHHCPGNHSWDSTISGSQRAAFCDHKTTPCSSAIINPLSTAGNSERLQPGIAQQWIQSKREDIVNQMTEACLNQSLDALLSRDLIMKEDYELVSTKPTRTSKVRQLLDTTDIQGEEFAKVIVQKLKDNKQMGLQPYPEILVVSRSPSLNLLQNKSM
Target sequence in this assay (P40337 whole entry): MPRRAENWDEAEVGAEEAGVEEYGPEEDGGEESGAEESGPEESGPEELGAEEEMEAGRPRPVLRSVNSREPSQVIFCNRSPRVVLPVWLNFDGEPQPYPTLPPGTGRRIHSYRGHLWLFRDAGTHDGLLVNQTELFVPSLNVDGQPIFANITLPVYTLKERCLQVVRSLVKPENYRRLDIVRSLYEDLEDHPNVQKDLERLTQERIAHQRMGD

[2] = molecular target: T1, von Hippel-Lindau disease tumor suppressor/Receptor-interacting serine/threonine-protein kinase 2; assay: Protac activity at VHL/RIPK2 in human THP-1 cells assessed as RIPK2 degradation at 10 nM measured after 16 hrs by Western blot analysis relative to control; assay type: cell-based
[3] = molecular target: Receptor-interacting serine/threonine-protein kinase 2 (Homo sapiens, UniProt O43353); assay: Inhibition of RIPK2 (unknown origin) by fluorescence polarization assay
[4] = molecular target: von Hippel-Lindau disease tumor suppressor/Histone deacetylase 1/Lysine-specific histone demethylase 1A/REST corepressor 1 (Homo sapiens, UniProt O60341+P40337+Q13547+Q9UKL0); assay: Protac activity at VHL/LSD1/HDAC1/CoREST complex interaction in human ES1 cells assessed as HDAC1 degradation by fluorescence based assay; assay type: cell-based
[5] = molecular target: von Hippel-Lindau disease tumor suppressor/Histone deacetylase 2/Lysine-specific histone demethylase 1A/REST corepressor 1 (Homo sapiens, UniProt O60341+P40337+Q92769+Q9UKL0); assay: Protac activity at VHL/LSD1/HDAC2/CoREST complex interaction in human ES1 cells assessed as induction of HDAC2 degradation by fluorescence based assay; assay type: cell-based
[6] = molecular target: von Hippel-Lindau disease tumor suppressor/Histone deacetylase 3/Lysine-specific histone demethylase 1A/REST corepressor 1 (Homo sapiens, UniProt O15379+O60341+P40337+Q9UKL0); assay: Protac activity at VHL/LSD1/HDAC3/CoREST complex interaction in human ES1 cells assessed as induction of HDAC3 degradation by fluorescence based assay; assay type: cell-based
[7] = molecular target: von Hippel-Lindau disease tumor suppressor/Interleukin-1 receptor-associated kinase 4 (Homo sapiens, UniProt Q9NWZ3+P40337); assay: Protac activity at VHL/IRAK4 in human HEK293T cells assessed as IRAK4 degradation measured after 24 hrs by immunoblotting analysis; assay type: cell-based
von Hippel-Lindau disease tumor suppressor/Interleukin-1 receptor-associated kinase 4, sequence (Q9NWZ3 whole entry): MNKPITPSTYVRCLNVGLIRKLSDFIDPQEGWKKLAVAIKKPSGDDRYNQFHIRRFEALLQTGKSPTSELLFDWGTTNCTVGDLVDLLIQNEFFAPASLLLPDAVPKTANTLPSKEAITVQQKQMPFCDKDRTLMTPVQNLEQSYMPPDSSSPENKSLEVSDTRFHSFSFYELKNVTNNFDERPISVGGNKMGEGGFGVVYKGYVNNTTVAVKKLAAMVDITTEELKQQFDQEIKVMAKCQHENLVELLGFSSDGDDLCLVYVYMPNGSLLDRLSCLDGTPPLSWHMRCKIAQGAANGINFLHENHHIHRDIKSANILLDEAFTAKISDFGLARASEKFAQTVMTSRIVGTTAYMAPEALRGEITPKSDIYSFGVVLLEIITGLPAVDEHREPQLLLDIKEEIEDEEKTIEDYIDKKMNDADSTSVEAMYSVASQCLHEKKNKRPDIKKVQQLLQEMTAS
von Hippel-Lindau disease tumor suppressor/Interleukin-1 receptor-associated kinase 4, sequence (P40337 whole entry): as the sequence (P40337 whole entry) above

Protein cereblon = Protein cereblon (Homo sapiens, UniProt Q96SW2); assay: Binding affinity to CRBN (unknown origin) assessed as dissociation constant by Tr-FRET assay
Protein cereblon, sequence (Q96SW2 whole entry): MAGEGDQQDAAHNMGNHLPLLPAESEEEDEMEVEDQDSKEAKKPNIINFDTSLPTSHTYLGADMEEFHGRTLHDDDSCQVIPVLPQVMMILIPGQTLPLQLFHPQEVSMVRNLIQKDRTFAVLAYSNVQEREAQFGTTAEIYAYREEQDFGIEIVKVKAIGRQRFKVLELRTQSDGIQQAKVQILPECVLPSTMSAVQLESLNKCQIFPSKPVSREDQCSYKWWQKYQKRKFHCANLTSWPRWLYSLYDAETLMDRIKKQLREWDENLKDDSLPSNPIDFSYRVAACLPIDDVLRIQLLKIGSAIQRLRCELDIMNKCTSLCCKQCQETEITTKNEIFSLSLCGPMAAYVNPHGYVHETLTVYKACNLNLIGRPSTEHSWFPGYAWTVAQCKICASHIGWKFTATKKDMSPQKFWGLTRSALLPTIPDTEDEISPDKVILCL

[8] = molecular target: Protein cereblon/Histone acetyltransferase KAT2B (Homo sapiens) (UniProt Q92831+Q96SW2); assay: Protac activity at CRBN/PCAF in human THP-1 cells assessed as PCAF degradation at 1.5 nM measured after 10 mins by Western blot analysis relative to control; assay type: cell-based
Protein cereblon/Histone acetyltransferase KAT2B (Homo sapiens), sequence (Q92831 whole entry, looked up): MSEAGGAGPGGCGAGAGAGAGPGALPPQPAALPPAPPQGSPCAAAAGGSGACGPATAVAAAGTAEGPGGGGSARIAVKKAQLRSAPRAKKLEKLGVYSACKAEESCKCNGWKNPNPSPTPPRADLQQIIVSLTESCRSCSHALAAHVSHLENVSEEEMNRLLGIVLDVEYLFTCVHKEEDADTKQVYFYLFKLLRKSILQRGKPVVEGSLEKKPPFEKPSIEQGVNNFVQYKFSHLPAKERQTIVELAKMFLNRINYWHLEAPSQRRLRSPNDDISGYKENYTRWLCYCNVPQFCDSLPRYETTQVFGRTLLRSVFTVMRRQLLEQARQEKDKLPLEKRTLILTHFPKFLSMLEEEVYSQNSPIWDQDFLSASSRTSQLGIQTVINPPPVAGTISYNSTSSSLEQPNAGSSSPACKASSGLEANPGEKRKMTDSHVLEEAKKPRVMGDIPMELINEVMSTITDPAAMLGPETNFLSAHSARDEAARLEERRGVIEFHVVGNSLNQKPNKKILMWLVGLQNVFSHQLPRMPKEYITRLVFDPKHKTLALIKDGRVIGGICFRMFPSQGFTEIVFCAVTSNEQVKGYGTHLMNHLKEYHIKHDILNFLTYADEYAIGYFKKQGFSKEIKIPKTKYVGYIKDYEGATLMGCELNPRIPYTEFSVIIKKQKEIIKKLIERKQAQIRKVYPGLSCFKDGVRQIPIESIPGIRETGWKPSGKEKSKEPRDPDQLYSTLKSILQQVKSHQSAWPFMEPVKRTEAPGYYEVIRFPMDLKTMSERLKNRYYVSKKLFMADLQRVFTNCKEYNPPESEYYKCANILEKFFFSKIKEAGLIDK
Protein cereblon/Histone acetyltransferase KAT2B (Homo sapiens), sequence (Q96SW2 whole entry, looked up): as the sequence (Q96SW2 whole entry) above

[9] = molecular target: Protein cereblon/Histone acetyltransferase KAT2A (Homo sapiens) (UniProt Q92830+Q96SW2); assay: Protac activity at CRBN/GCN5 in human THP-1 cells assessed as GCN5 degradation at 3 nM measured after 10 mins by Western blot analysis relative to control; assay type: cell-based
HeLa = assay: Anticancer activity against human HeLa cells assessed as cell growth inhibition measured after 24 hrs by MTT assay; assay type: functional, cell-based
[10] = molecular target: T2, von Hippel-Lindau disease tumor suppressor/Histone deacetylase 3 (Homo sapiens, UniProt O15379+P40337); assay: Protac activity at VHL/HDAC3 in human MDA-MB-468 cells assessed as HDAC3 degradation measured after 14 hrs by Western blot analysis; assay type: cell-based
[11] = molecular target: T2, von Hippel-Lindau disease tumor suppressor/Histone deacetylase 3; assay: Protac activity at VHL/HDAC3 in human MDA-MB-468 cells assessed as HDAC3 degradation at 125 nM measured after 8 hrs by Western blot analysis relative to control; assay type: cell-based
[12] = molecular target: Protein cereblon/Poly [ADP-ribose] polymerase 1 (Homo sapiens) (UniProt P09874+Q96SW2); assay: Protac activity at CRBN/PARP1 in human SW620 cells assessed as degradation of PARP1 at <100 nM measured after 24 hrs by Western blot analysis relative to control; assay type: cell-based
[13] = molecular target: E3 ubiquitin-protein ligase XIAP/Receptor-interacting serine/threonine-protein kinase 2 (Homo sapiens, UniProt P98170+O43353); assay: Protac activity at IAP/RIPK2 in human THP-1 cells assessed as degradation of RIPK2 measured after 18 hrs by capillary immunoassay; assay type: cell-based
[14] = molecular target: Protein cereblon/Receptor-interacting serine/threonine-protein kinase 2 (Homo sapiens, UniProt O43353+Q96SW2); assay: Protac activity at CRBN/RIPK2 in human THP-1 cells assessed as degradation of RIPK2 measured after 18 hrs by capillary immunoassay; assay type: cell-based
Protein cereblon/Receptor-interacting serine/threonine-protein kinase 2, sequence (O43353 whole entry): as the sequence (O43353 whole entry) above
Protein cereblon/Receptor-interacting serine/threonine-protein kinase 2, sequence (Q96SW2 whole entry): as the sequence (Q96SW2 whole entry) above

[15] = molecular target: Protein cereblon/Indoleamine 2,3-dioxygenase 1 (Homo sapiens) (UniProt P14902+Q96SW2); assay: Protac activity at CRBN/IDO1 in human HeLa cell assessed as degradation of IDO1 measured after 24 hrs by Western blot assay relative to control; assay type: cell-based
Protein cereblon/Indoleamine 2,3-dioxygenase 1 (Homo sapiens), sequence (P14902 whole entry, looked up): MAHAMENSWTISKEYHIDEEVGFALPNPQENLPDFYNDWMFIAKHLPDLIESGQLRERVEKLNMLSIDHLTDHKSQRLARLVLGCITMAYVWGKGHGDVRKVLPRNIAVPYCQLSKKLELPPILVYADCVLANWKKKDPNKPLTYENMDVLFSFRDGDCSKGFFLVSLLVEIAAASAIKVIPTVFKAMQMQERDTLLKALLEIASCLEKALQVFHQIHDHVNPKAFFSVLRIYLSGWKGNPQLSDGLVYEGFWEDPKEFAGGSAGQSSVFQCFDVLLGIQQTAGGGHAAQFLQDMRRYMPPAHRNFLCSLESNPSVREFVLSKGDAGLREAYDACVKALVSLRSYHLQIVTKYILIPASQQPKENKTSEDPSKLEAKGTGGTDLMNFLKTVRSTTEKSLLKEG
Protein cereblon/Indoleamine 2,3-dioxygenase 1 (Homo sapiens), sequence (Q96SW2 whole entry, looked up): as the sequence (Q96SW2 whole entry) above

For `O=C(/C=C/c1cccnc1)NCCCCC1CCN(C(=O)c2ccc(N3CCN(CCCCCC#Cc4cccc5c4CN(C4CCC(=O)NC4=O)C5=O)CC3)cc2)CC1` (stereo not given), the IC50 (Jurkat) was 4.46 nM, the IC50 (HL-60) was 8.56 nM and the IC50 (MOLT-4) was 2.96 nM.
`C=C([C@@H](NC(=O)COCCOCCOCCOCCOc1cc2nccc(Nc3ccc4scnc4c3)c2cc1S(=O)(=O)C(C)(C)C)C(C)(C)C)N1C[C@H](O)C[C@H]1C(=O)NCc1ccc(-c2scnc2C)cc1` showed a DC50 [1] of 1.4 nM, an Emax [2] of over 95% and an IC50 [3] of 10 nM.
In the case of `Cc1ncsc1-c1ccc(CNC(=O)[C@@H]2C[C@@H](O)CN2C(=O)[C@@H](NC(=O)CCCCCCCCCCC(=O)Nc2ccc(C(=O)Nc3ccccc3N)cc2)C(C)(C)C)cc1`, the IC50 [4] is reported as 500 nM, the IC50 [5] is reported as 500 nM and the IC50 [6] is reported as 500 nM.
Compound `CC(C)Nc1cc(-n2ccc3cc(C#N)cnc32)ncc1C(=O)N[C@H]1CC[C@H](C(=O)NCCOCCNC(=O)COc2cccc3c2C(=O)N(C2CCC(=O)NC2=O)C3=O)CC1` (stereo not given in full) has a DC50 [7] of 405 nM and a Kd (Protein cereblon) of 490 nM.
Work on `CN1C[C@H](Nc2cnn(C)c(=O)c2Br)C[C@H](c2ccc(C(=O)N(C)CCCN(C)c3ccc(CCCOc4cccc5c4C(=O)N(C4CCC(=O)NC4=O)C5=O)cc3)cc2)C1` (stereo not given in full) yielded an Activity [8] of 50% and an Activity [9] of 50%.
With `CC1(NCc2cn(CCOCCOCCOCCOCCNc3cccc4c3C(=O)N(C3CCC(=O)NC3=O)C4=O)nn2)CCN(c2cnc(-c3cccc(Cl)c3Cl)c(N)n2)CC1` (stereo not given) the IC50 (HeLa) was 4.3 nM.
In the case of `CCCNNC(=O)c1ccc(-c2ccc(NC(=O)CCCCCCC(=O)N[C@H](C(=O)N3C[C@H](O)C[C@H]3C(=O)N[C@@H](C)c3ccc(-c4scnc4C)cc3)C(C)(C)C)cc2)cc1`, the DC50 [10] is reported as 42 nM and the Activity [11] is reported as 70%.
`O=C1CCC(N2Cc3c(NCCCCCCCCCCCNC(=O)c4cc(Cc5n[nH]c(=O)c6ccccc56)ccc4F)cccc3C2=O)C(=O)N1` (stereo not given) gave an Activity [12] of 80%.
In the case of `CN[C@@H](C)C(=O)N[C@H](C(=O)N1Cc2cc(OCCOCCOCCOCCOc3cc4nccc(Nc5ccc6scnc6c5)c4cc3S(=O)(=O)C(C)(C)C)ccc2C[C@H]1C(=O)N[C@@H]1CCCc2ccccc21)C(C)(C)C`, the DC50 [13] is reported as 2 nM.
In the case of `CC(C)(C)S(=O)(=O)c1cc2c(Nc3ccc4scnc4c3)ccnc2cc1OCCOCCOCCOCCOCC(=O)Nc1cccc2c1CN(C1CCC(=O)NC1=O)C2=O` (stereo not given), the DC50 [14] is reported as 2.5 nM.
In the case of `O=C1CCC(N2C(=O)c3cccc(NCCOCCOCCOCCOCCOCCOCCOCCNCCNc4nonc4/C(=N/O)Nc4ccc(F)c(Br)c4)c3C2=O)C(=O)N1` (stereo not given), the Emax [15] is reported as 93%.

From ChEMBL document CHEMBL5346894, “Developments of PROTACs technology in immune-related diseases” (Eur J Med Chem, 2023)
